The values that follow are results of earlier work, collected in patent publication US11839619B2, “Methods for treatment of pediatric systemic mastocytosis” (The Regents of the University of California, priority 2019, dated 2023).

For this data set the following is noted: in vivo.

For the molecule `CO[C@@H]1[C@H](N(C)C(=O)c2ccccc2)C[C@H]2O[C@]1(C)n1c3ccccc3c3c4c(c5c6ccccc6n2c5c31)C(=O)NC4` [midostaurin], the common side effects result is “nausea, vomiting, diarrhea, and thrombocytopenia”.
